From patent EP2258370A1, “Treatment of malignant diseases” (Medizinische Universität Wien, priority 2009, dated 2010)

Columns and labels:
[1] = system: CRL 2505 (prostate carcinoma); experiment: Cell proliferation assay (WST-1); assay type: cell-based; details: 25 and 50 µM, 24 h, 48 h and 72 h, WST-1, Figs. 2a-f
Procedure: (§1) Rac-1 inhibitor compounds were tested in cell proliferation assays performed with following cancer cell lines: MCF7 (mammary carcinoma), SW620 (colon carcinoma), CRL 2505 (prostate carcinoma). The level of proliferation was measured at 24 hours (h), 48 h and 72 h after in vitro induction of compounds. Two different concentrations of compounds were tested for each cell line (25 and 50 µM, see Figs. 2a-f; the asteriks indicates significant change versus control group (no compound induction) at all incubation points (p<0.02)).
(§2) The proliferation assay was performed with Cell Proliferation Reagent WST-1 (Roche Cat. No. 1644 807). The cells were cultured 2 x 10^4 cells/well in microplates (96 wells, flat bottom). The Cell Proliferation Reagent WST-1 (10 µl/well) was added to each experimental group (Figs. 2a-f). After 4 hours of incubation (37°C) the absorbance was measured by Microplate (ELISA) reader at 450 nm optical density (OD). The reference wavelength was 620 nm.
(§3) All experimental compounds (compounds 1, 2, 3-10, 18, 53) were solved in 1% DMSO solution. Therefore, additional experimental group (1% DMSO) was used to examine proliferation activity of used cell lines in presence of 1% DMSO.
(§4) All measurements were corrected to the blank absorbance (medium with 10 µl Cell Proliferation Reagent WST-1, no cells).

MCF7 (mammary carcinoma) = experiment: Cell proliferation assay (WST-1); assay type: cell-based; details: 25 and 50 µM, 24 h, 48 h and 72 h, WST-1, Figs. 2a-f
Procedure: as §1, §2, §3, §4

SW620 (colon carcinoma) = experiment: Cell proliferation assay (WST-1); assay type: cell-based; details: 25 and 50 µM, 24 h, 48 h and 72 h, WST-1, Figs. 2a-f
Procedure: as §1, §2, §3, §4

MCF-7 cells = experiment: MCF-7 human breast cancer xenograft in athymic nude mice; assay type: in vivo; details: intraperitoneal osmotic minipump from day 24, day 38, control 210 ± 31 mg
Procedure: On the indicated days, tumour sizes were determined with a caliper and tumour volumes calculated according to the following formula: tumour volume = [(length x width^2) x […]].
All mice were sacrificed on day 38 and tumour weights were then determined.

SW620 cells = experiment: SW620 human colon cancer xenograft in athymic nude mice; details: 100µg/day for 2 weeks, intraperitoneal osmotic minipump from day 8, day 22; for mean tumour weight: control 793; for Mean tumour weight (±SD): control 793 ± 328 mg
Procedure: 8 x 10^6 SW620 cells/100µl PBS were injected subcutaneously into the left flank. […] Control mice received osmotic pumps filled with Ringer's solution. All mice were sacrificed on day 22 and tumour weights were then determined.

PC-3 = details: Rac-hyperactive prostate cancer cells; cited from earlier work

Question: Which “inhibiting proliferation of the tumour cells” value (“inhibiting proliferation” below) [1] does the source give for `CCN(CC)CCCC(C)Nc1nc(C)cc(NCCc2c[nH]c3ccc(O)cc23)n1` (racemic) [Compound 2, 3-{2-[2-(4-Diethylamino-1-methyl-butylamino)-6-methyl-pyrimidin-4-ylamino]-ethyl}-1H-indol-5-ol] here?
Answer: The value was “effective in inhibiting proliferation”.

Question: What about the “inhibiting proliferation” value (MCF7 (mammary carcinoma)) of the same compound?
Answer: The value was “effective in inhibiting proliferation”.

Question: And the “inhibiting proliferation” value (SW620 (colon carcinoma))?
Answer: The value was “effective in inhibiting proliferation”.

Question: What about the mean tumour weight (MCF-7 cells; 25µg per day) of the same compound?
Answer: Its mean tumour weight is 185 ± 54 mg.

Question: What about the mean tumour weight (MCF-7 cells; 50µg per day) of the same compound?
Answer: Its mean tumour weight is 152 ± 70 mg.

Question: What about the mean tumour weight (MCF-7 cells; 100µg per day) of the same compound?
Answer: Its mean tumour weight is 118 ± 60 mg.

Question: And the “Mean tumour weight (% of control (co))” value (SW620 cells)?
Answer: The value was 77 % of control (co).

Question: What about the “mean tumour weight” value (SW620 cells) of the same compound?
Answer: Its value is 612 mg.

Question: And the “Mean tumour weight (±SD)” value (SW620 cells)?
Answer: Its value is 612 mg.

Question: What does the source list for `CCN(CC)CCCC(C)Nc1nc(C)cc(NCCc2c[nH]c3ccccc23)n1` (stereo not shown) [Compound 1, N2-(4-Diethylamino-1-methyl-butyl)-N4-[2-(1H-indol-3-yl)-ethyl]-6-methyl-pyrimidine-2,4-diamine]?
Answer: inhibiting proliferation of the tumour cells [1]: effective in inhibiting proliferation; inhibiting proliferation of the tumour cells (MCF7 (mammary carcinoma)): effective in inhibiting proliferation; inhibiting proliferation of the tumour cells (SW620 (colon carcinoma)): effective in inhibiting proliferation; Mean tumour weight (% of control (co)) (SW620 cells): 74 % of control (co); mean tumour weight (SW620 cells): 583 mg; Mean tumour weight (±SD) (SW620 cells): 583 ± 151 mg

Question: What does the source list for `CCN(CC)CCCC(C)Nc1nc(C)cc(Nc2ccc3nc(C)cc(N)c3c2)n1` (racemic) [NSC23766, N6-(2-((4-(diethylamino)-1-methylbutyl)amino)-6-methyl-4-pyrimidinyl)-2-methyl-4,6-quinolinediamine, reference compound]?
Answer: proliferation, anchorage independent growth, and invasion (PC-3): able to inhibit proliferation, anchorage independent growth, and invasion; Mean tumour weight (% of control (co)) (SW620 cells): 107 % of control (co); mean tumour weight (SW620 cells): 846 mg; Mean tumour weight (±SD) (SW620 cells): 846 ± 256 mg
